Consider 4 molecules from PMC9578445, “Association of respiratory failure with inhibition of NaV1.6 in the phrenic nerve” (Channels, 2022).

SMILES strings stand for the structures. Some results are limits rather than exact numbers.

For one series, the target named is hERG (Homo sapiens, UniProt Q12809). The experiment in a line: Functional Ion Channel Panel hERG. It counts as biochemical. Particulars: read-out: hERG %inh. An excerpt: (§1) Supplement KCHL_A_2122309_SM6747.docx, table 1 | column: SSI-5; SSI-3; SSI-4; SSI-1
On the technique in general: Block of hERG is tested as a sign of cardiac risk.

For series [1], the target named is T1, Nav1.6 (Homo sapiens, UniProt Q9UQD0). The series is described as follows: Nav1.6 binding. The arrangement: expressed in transfected cells; host or cells: HEK cells. The conditions noted are these: read-out: Nav1.6 bind Ki. The text has this:
(§2) Supplement KCHL_A_2122309_SM6747.docx, table 1 | column: SSI-5; SSI-3; SSI-4; SSI-1; SSI-6

A further series concerns the target T2, NAChR α3β4 (Homo sapiens, UniProt P30926+P32297).
T2 construct: Panlabs
The experiment in a line: Panlabs selection. It counts as binding.

In another series the target is Cav1.2 (Homo sapiens, UniProt Q13936). The experiment in a line: Global Counterscreen Cav1.2.
Source text: as §2
For orientation: Counterscreens check selectivity or assay interference.

Series [2] can be described thus: Rat plasma protein binding. It counts as in vitro ADME.
Source text: as §2

The target of series [3] is (Homo sapiens, UniProt Q12809). The series is described as follows: Global Counterscreen MK499 binding.
Source text: as §2

For series [4], the target named is T1, Nav1.6. The series is described as follows: PatchXpress automated patch clamp, hyperpolarized-state protocol. Particulars: for IC50: HEK 293 cells, hyperpolarized protocol. Also on record: expressed in transfected cells. The series is classed as cell-based. Here is the method:
(§3) Sodium currents were recorded from recombinant Human Embryonic Kidney 293 cell lines stably overexpressing the respective sodium channel type (NaV1.2, 1.5, 1.4, 1.6, 1.7). Recording solutions were comprised of the following (in mM): Internal solution: 30 CsCl, 5 HEPES, 10 EGTA, 120 CsF, 5 NaF, 2 MgCl2, pH = 7.3 with CsOH; External solution 1: 40 NaCl, 120 NMDG, 1 KCl, 0.5 MgCl2, 5 HEPES, 2.7 CaCl2, pH to 7.3 with NaOH, used for NaV1.5 recordings; External solution 2: 150 NaCl, 5 KCl, 2 CaCl2, 1 MgCl2, 10 HEPES, 12 Dextrose, pH 7.3 with NaOH, used for NaV1.7, 1.6, 1.4, and 1.2 recordings.
Whole-cell currents were recorded from cells stably expressing NaV channels using the PatchXpress 7000A automated patch clamp platform (Molecular Devices, LLC; Sunnyvale, CA). A portable air-conditioning unit was installed on the PatchXpress instruments to maintain the temperature of the headstage at 21°C. Cells were voltage clamped at −60 mV for cell detection and sealing. At the start of each recording, a voltage curve and an inactivation curve was run for each cell to determine the voltage at which 50% of the channels reside in the inactivated state (V0.5 inact). The voltage curve was used to determine if the cell was adequately clamped; cells with currents larger than 10nA or with space clamp issues were not used further.
NaV1.7, NaV1.6, NaV1.4: Compound potency was measured in a hyperpolarized-state protocol where the holding potential for each cell was set to V0.5inact – 20 mV. A pulse train consisting of 7 consecutive double pulses, 8 second hypepolarizing prepulse to −120 mV followed by a test pulse to −10 mV was applied at a frequency of 0.1 Hz. First, vehicle (0.3% DMSO) was added to establish a baseline measurement. Once baseline was established, test compounds were added. Cells were exposed to compound for 5 minutes at 20 mV negative to V0.5inact then exposed to the same hyperpolarized voltage protocol. (no pulsing during compound incubation). A washout was performed to measure recovery of the sodium currents from inhibition.
Recordings were included for analysis when current amplitude reached steady-state in vehicle, compound inhibition was concentration-dependent and currents recovered during wash-out periods. Raw data from PatchXpress experiments were retrieved from the database and analyzed using the DataXpress 2 software (Molecular Devices).
At least 3 concentrations (3–9 replicates per concentration) were tested and at least one concentration had to cause 20–80% current inhibition.
A general note: The patch-clamp technique gives a direct electrical read-out from membranes.

The target of series [5] is T1, Nav1.6. The series is described as follows: PX Nav1.6 IC50 (supplement). It counts as cell-based. The arrangement: expressed in transfected cells; host or cells: HEK cells. Here is the method: as §3
Whole-cell currents were recorded from cells stably expressing NaV channels using the PatchXpress 7000A automated patch clamp platform (Molecular Devices, LLC; Sunnyvale, CA). A portable air-conditioning unit was installed on the PatchXpress instruments to maintain the temperature of the headstage at 21°C. Cells were voltage clamped at −60 mV for cell detection and sealing. At the start of each recording, a voltage curve and an inactivation curve was run for each cell to determine the voltage at which 50% of the channels reside in the inactivated state (V0.5 inact). […]
NaV1.7, NaV1.6, NaV1.4: Compound potency was measured in a hyperpolarized-state protocol where the holding potential for each cell was set to V0.5inact – 20 mV. […]

For a further series, the target named is Pgp (Homo sapiens, UniProt P08183). The experiment in a line: Permeability BA/AB ratio (Pgp transport). The series is classed as in vitro ADME. The conditions noted are these: not told.
In the next series the target is T3, Histamine H1 (Homo sapiens, UniProt P35367).
T3 construct: Panlabs
The experiment in a line: Panlabs selection. The series is classed as binding.
Source text: as §1

A further series concerns the target Transporter, Choline (Homo sapiens, UniProt Q9GZV3). The series is described as follows: Panlabs selection. The series is classed as binding.
Source text: as §1

A further series has as its target T4, Adrenergic α2B (Homo sapiens, UniProt P18089).
T4 construct: Panlabs
The experiment in a line: Panlabs selection. It counts as binding.
Source text: as §1

The target of the next series is T5, Adrenergic α1D (Homo sapiens, UniProt P25100).
T5 construct: Panlabs
The experiment in a line: Panlabs selection. The series is classed as binding.
Source text: as §1

The target of series [6] is Transporter, Norepinephrine NET (Homo sapiens, UniProt P23975). The series is described as follows: Panlabs selection. The series is classed as binding.
Source text: as §1

For series [7], the target named is Transporter, Dopamine DAT (Homo sapiens, UniProt Q01959). The experiment in a line: Panlabs selection. The series is classed as binding.
Source text: as §1

A further series concerns the target T6, Adrenergic α2A (Homo sapiens, UniProt P08913).
T6 construct: Panlabs
The series is described as follows: Panlabs selection. The series is classed as binding.
Source text: as §1

The target of the next series is Serotonin 5-HT2B (Homo sapiens, UniProt P41595). The experiment in a line: Panlabs selection. The series is classed as binding.
Source text: as §1

The next series concerns the target T7, Melanocortin MC5 (Homo sapiens, UniProt P33032).
T7 construct: Panlabs
The series is described as follows: Panlabs selection. It counts as binding.
Source text: as §1

Another series addresses T8, Adrenergic α2C (Homo sapiens, UniProt P18825).
T8 construct: Panlabs
The series is described as follows: Panlabs selection. The series is classed as binding.
Source text: as §1

A further series deals with Nicotinic Acetylcholine. The series is described as follows: Panlabs selection. It counts as binding. An excerpt: Supplement KCHL_A_2122309_SM6747.docx, table 1 | column: SSI-5; SSI-4; SSI-1
The target in another series is Iks (Homo sapiens, UniProt P51787). The experiment in a line: Functional Ion Channel Panel Iks. It counts as biochemical. Particulars: read-out: Iks %inh.
Source text: as §1

Chain of Pgp (P08183 whole entry): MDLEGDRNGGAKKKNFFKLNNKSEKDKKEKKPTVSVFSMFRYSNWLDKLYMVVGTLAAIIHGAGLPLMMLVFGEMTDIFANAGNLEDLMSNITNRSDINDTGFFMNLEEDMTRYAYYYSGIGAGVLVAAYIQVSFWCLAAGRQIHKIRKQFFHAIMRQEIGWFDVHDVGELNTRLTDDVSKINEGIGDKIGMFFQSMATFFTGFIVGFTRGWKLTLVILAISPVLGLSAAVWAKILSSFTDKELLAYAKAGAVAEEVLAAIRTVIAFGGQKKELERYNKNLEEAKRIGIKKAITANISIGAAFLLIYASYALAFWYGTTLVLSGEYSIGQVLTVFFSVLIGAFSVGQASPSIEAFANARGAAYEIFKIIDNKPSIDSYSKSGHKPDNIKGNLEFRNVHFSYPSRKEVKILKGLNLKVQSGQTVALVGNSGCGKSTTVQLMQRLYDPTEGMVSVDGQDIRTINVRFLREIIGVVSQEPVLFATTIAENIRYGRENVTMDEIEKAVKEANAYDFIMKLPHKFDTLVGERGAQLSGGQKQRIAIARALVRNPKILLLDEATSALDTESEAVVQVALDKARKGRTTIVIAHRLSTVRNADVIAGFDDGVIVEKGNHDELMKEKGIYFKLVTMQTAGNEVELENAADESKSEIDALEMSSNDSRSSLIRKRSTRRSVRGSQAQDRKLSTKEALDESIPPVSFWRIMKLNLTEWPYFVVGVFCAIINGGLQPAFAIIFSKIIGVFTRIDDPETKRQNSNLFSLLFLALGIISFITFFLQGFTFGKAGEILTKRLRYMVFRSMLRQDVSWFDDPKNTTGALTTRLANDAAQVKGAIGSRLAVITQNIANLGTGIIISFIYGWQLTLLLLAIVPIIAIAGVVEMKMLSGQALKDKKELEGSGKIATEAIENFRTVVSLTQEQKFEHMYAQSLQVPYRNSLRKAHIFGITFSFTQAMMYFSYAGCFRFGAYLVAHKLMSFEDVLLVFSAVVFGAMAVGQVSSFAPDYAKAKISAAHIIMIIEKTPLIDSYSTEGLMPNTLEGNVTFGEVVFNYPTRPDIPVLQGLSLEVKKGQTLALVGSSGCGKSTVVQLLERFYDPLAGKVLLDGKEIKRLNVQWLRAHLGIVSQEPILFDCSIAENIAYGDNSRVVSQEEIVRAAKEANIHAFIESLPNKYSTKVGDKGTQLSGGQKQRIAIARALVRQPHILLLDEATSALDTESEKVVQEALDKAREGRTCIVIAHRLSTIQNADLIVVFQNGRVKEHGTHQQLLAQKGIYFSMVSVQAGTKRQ
T1 sequence (Q9UQD0 whole entry): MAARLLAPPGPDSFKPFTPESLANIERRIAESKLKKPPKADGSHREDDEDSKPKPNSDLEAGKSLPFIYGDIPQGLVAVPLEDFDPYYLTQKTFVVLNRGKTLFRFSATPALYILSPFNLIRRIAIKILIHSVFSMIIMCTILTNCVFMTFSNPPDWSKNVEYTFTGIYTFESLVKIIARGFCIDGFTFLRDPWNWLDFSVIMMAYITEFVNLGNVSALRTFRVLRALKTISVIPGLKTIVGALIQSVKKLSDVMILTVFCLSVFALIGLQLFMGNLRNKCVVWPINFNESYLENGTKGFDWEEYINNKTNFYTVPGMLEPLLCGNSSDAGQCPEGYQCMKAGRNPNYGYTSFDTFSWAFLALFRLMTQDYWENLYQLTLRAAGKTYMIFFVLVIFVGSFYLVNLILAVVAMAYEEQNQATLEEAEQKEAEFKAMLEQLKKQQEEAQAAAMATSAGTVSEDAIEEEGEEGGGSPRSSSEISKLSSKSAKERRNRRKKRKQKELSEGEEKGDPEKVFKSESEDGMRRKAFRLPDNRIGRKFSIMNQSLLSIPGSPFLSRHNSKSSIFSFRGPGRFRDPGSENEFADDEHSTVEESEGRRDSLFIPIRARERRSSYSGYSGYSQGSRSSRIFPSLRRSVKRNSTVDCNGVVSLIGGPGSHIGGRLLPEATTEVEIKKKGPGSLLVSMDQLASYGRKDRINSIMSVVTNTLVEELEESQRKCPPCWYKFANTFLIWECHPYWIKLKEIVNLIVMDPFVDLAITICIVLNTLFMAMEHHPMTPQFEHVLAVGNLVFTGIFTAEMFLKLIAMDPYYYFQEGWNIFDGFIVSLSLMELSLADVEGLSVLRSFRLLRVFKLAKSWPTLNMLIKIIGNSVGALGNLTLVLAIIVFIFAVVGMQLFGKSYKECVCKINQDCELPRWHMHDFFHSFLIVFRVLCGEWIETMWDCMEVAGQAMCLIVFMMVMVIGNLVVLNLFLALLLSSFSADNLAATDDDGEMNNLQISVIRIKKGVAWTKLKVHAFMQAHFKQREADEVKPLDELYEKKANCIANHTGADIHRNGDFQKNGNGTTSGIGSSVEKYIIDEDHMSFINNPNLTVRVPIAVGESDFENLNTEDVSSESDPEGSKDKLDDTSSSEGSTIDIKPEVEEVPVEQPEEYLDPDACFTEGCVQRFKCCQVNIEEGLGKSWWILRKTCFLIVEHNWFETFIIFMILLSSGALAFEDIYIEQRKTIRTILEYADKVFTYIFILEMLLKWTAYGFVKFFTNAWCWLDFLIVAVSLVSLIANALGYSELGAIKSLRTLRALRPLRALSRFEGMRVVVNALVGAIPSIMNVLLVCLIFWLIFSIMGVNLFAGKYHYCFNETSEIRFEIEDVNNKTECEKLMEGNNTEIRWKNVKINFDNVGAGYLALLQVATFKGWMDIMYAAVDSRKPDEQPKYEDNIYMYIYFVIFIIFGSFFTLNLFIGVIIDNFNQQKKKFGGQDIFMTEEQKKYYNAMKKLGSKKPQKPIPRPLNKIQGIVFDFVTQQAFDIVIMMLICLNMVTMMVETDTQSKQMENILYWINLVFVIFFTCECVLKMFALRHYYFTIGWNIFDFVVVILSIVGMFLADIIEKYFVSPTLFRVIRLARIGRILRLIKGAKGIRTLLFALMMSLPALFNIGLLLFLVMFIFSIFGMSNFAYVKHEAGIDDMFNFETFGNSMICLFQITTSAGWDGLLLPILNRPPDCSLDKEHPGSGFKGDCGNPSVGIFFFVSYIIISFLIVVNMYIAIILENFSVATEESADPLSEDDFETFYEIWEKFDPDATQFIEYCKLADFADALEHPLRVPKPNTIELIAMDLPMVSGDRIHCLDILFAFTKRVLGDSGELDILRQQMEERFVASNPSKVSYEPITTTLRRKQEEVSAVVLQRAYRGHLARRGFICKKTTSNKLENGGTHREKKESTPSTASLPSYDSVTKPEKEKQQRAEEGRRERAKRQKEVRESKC
Chain of (Homo sapiens, UniProt Q12809) (Q12809 whole entry): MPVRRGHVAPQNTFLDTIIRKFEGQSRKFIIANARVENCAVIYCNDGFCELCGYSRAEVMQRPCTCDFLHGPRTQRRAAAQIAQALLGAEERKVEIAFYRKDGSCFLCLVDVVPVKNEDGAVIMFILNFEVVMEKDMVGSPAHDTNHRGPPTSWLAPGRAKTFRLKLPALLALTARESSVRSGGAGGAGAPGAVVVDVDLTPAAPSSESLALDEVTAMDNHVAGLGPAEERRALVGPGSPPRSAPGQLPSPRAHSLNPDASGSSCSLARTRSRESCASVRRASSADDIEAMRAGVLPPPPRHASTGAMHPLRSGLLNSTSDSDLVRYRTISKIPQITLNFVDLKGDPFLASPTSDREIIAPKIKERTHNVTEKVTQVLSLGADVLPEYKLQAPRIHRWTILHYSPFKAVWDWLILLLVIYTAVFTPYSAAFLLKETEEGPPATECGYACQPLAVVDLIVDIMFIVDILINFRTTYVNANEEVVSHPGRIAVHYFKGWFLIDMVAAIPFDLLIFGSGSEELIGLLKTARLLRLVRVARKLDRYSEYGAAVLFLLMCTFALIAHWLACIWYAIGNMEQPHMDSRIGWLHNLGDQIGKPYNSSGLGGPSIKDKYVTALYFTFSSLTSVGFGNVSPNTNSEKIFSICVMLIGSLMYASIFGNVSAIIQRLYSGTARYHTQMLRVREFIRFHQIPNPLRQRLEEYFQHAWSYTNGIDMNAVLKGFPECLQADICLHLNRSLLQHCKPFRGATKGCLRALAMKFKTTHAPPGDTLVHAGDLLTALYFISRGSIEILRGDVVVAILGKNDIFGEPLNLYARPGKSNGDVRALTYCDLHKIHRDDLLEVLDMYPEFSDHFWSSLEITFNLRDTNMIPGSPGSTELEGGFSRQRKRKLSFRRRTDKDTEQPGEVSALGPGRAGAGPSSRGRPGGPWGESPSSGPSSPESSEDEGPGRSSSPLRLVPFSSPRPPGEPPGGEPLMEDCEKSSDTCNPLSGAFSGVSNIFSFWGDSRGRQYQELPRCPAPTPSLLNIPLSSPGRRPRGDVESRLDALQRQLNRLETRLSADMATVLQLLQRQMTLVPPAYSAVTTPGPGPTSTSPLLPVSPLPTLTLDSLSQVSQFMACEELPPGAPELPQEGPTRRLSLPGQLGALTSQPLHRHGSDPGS
T5 sequence (P25100 whole entry): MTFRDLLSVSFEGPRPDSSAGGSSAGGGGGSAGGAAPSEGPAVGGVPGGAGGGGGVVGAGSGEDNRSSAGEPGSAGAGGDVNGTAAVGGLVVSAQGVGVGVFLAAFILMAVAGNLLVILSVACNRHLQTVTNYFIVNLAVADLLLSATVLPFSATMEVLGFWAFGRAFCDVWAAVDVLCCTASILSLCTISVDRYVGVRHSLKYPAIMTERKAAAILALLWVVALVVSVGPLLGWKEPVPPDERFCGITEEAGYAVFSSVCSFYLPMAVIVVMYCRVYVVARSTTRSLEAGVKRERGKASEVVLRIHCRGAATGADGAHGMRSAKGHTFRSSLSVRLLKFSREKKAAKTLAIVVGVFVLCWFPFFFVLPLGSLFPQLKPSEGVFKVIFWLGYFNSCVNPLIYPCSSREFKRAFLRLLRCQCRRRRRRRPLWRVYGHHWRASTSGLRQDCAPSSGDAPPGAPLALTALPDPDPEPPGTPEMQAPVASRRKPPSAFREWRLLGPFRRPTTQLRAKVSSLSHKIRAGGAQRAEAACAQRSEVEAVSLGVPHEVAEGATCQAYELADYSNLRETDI

For the molecule `O=S(=O)(Nc1nccs1)c1cc(Cl)c(NCCCCNC[C@H]2CCCN2)cc1F` [SSCI-1], the inhibition at 30 µM on hERG is 22%; at Iks, -1%. Further, the Ki (as a rule, a dissociation constant, usually derived from enzyme kinetics or from competition with a known ligand) was 47.1 nM on Nav1.6 [1]; more than 10 µM at NAChR α3β4; more than 54 µM in series [3]; more than 10 µM at Histamine H1; 3.19 µM on Transporter, Choline; more than 10 µM at Adrenergic α2B. Moreover, the Ki at Adrenergic α1D is more than 10 µM; in series [6], 3.93 µM; in series [7], 0.98 µM; on Adrenergic α2A it was more than 10 µM; on Serotonin 5-HT2B, more than 10 µM; on Melanocortin MC5 it was more than 10 µM. In addition, the Ki at Adrenergic α2C and on Nicotinic Acetylcholine was more than 10 µM in each case. Also, the values for the IC50 at Cav1.2, on Nav1.6 [4] and on Nav1.6 [5] were more than 30 µM, more than 30 µM and 18.2 µM, respectively. Besides, the unbound share (fraction unbound) (usually the share of the substance not bound to proteins or other matrix) in series [2] was 0.067. Further, at Pgp, the efflux ratio (usually the permeability from basolateral to apical divided by that in the opposite direction, in the common usage) is approximately 1.1.

Consider `C[C@H](c1cccc2c1CNCC2)n1c(=O)oc2cc(S(=O)(=O)Nc3ncns3)ccc21` [SSCI-3], for which the IC50 – broadly, the concentration needed to halve the response being measured – at Nav1.6 [4] came out at 1.11 µM. In addition, the efflux ratio on Pgp is approximately 1.03.

`N#Cc1cc(S(=O)(=O)Nc2cscn2)ccc1Oc1ccc(Cl)cc1-c1ccnn1C1CNC1` [SSCI-5] registered an IC50 against Nav1.6 [4] of 4.61 µM. At Pgp, the efflux ratio is less than 999.

As to `COc1ccc(CCC(c2cccc3c2CNCC3)n2c(=O)oc3cc(S(=O)(=O)Nc4ncns4)c(F)cc32)cc1` (centres unmarked) [SSCI-6], the Ki on Nav1.6 [1] is 0.08 nM; in series [3], 17 µM. Further, the figures for the IC50 against Cav1.2, against Nav1.6 [4] and against Nav1.6 [5] were 24 µM, 0.023 µM and 0.018 to 0.036 µM, respectively. The fraction unbound in series [2] is 0.018. At Nav1.6 [4], the “fold more potent at inhibiting NaV1.6 channels” value was “approximately 10 fold”.
